Assay results taken from patent publication US4371536A, “β-Carbolin-3-carboxylic acid derivatives” (A/S Ferrosan, priority 1979, dated 1983).

Assays:
[1] = system: benzodiazepin receptors; assay: Inhibition of 3H-flunitrazepam binding in vivo (mouse forebrain); settings: mice, s.c.; 3H-flunitrazepam i.v. 15 min later, killed after additional 20 min; 35 min
Method: The displacement activity of the compounds of the invention has been determined by determined the IC50 value and ED50 value.
The ED50 value represents the dose (mg/kg) of a test substance which causes the specific binding of flunitrazepam to benzodiazepin receptors in a living brain to be reduced to 50% of the control value. Such an in vivo test is carried out as follows:
Groups of mice are injected with the test substance at different doses and usually subcutaneously. 15 minutes later, ^3 H-flunitrazepam is given intravenously to the mice and after an additional 20 minutes, the mice are killed. Their forebrain membranes are removed and the radioactivity of the forebrain membranes is measured by scintillation counting. The ED50 value is determined from dose-response curves.

[2] = molecular target: benzodiazepine receptors; assay: Displacement of 3H-flunitrazepam binding in vitro (rat forebrain); settings: 3H-flunitrazepam 1.0 nM, 0° C.
[3] = system: rats; assay: Motility of rats in familiar cages during rest period (awakening effect); format: in vivo; settings: for motility versus saline control: 4 hours; for behavior during the experimental (rest) period: ethyl ester 20-100 mg/kg s.c., methylamide 20-100 mg/kg p.o., amphetamine s.c.
Method: Normal locomotion, grooming and eating occur during the dark period and rest during the light period. If CNS stimulants are given to rats which have stayed in their cages for several hours, a pronounced hypermotility is observed during the light period (Buus Lassen, Psychopharmacologia 1973, 29, 55-64; Kallman and Isaac, Psychopharmacologia 1975, 40, 313-318).
Psysiological saline and test substances were administered s.c. or p.o. to rats kept in familiar cages. The motility was measured for 4 hours (2 periods of 2 hours) after administrations. The motility of groups receiving test substances was compared (Student's t-test) with the motility of the saline-treated control group.

[4] = Inhibition of motor coordination (ataxia) in mice; settings: mouse, in vivo, sc, 30 minutes after s.c. administration, read-out: ED50 Ataxia (Motor incoordination)
Method: The inhibition of motor coordination in mice was also studied 30 minutes after subcutaneous administration in accordance with a method described in the literature (Buus Lassen et al, Acta pharmacol. et toxicol., 1971, 39, 1-16).

[5] = system: mice; assay: Inhibition of aggression in isolated male mice; format: in vivo; settings: Mus musculus, sc, 0.5 h, s.c., 1/2 hour, read-out: ED50 inhibition of agression (1/2h)
Method: The inhibition of aggression has been determined on male mice (NMR from Mollegaard, Denmark) having a weight of 20-22 g. The mice are isolated for 3 weeks in plastic cages and when two mice subsequently are brought into the same cage, they will spontaneously and almost instantaneously start fighting. […] J. Pharmacol., 1978, 47, 45-49. The compounds of the invention were administered subcutaneously and orally and the antiaggressive effect after 1/2 hour was determined. Based on the data obtained, the ED50 value has been calculated.

[6] = Acute toxicity in mice (deaths within 24 hours); settings: mouse, in vivo
Method: The acute toxicity in mice was determined by recording the number of deaths within 24 hours.

[7] = system: rats; assay: Inhibition of exploratory motility in rats (sedative effect); format: in vivo; settings: Rattus norvegicus, sc, 0.5 h, 30 min after s.c. administration, first 10 min in novel cage
Method: Inhibition of exploratory motility in rodents is a widely used test for sedative effect. A compound of this invention and two well known tranquilizers have been subjected to such a test.
30 Minutes after subcutaneous administration of physiological saline and test substances, rats were transferred to a novel cage and the motility was measured for the first 10 minutes. The ED50 is the dose inhibiting the motility by 50% as compared to the controls.

| SMILES | ED50 in vivo, inhibition of 3H-flunitrazepam binding [1] [mg/kg s.c.] | IC50 in vitro, inhibition of 3H-flunitrazepam binding [2] [µg/mL] | ED50 [5] [mg/kg] | also measured |
| --- | --- | --- | --- | --- |
| O=C(c1cc2c(cn1)[nH]c1ccccc12)N1CCCC1 | > 250 | 3.3 |  |  |
| O=C(c1cc2c(cn1)[nH]c1ccccc12)N1CCCCC1 | > 250 | 0.36 |  |  |
| CN1CCN(C(=O)c2cc3c(cn2)[nH]c2ccccc23)CC1 | > 250 | > 4 |  |  |
| CC(N)Cc1ccccc1 (centres unmarked) [Amphetamine, reference compound] |  |  |  | motility versus saline control ([3]; 0.5-5 mg/ig s.c.): produced a significant hypermotility; behavior during the experimental (rest) period [3]: continuous, stereotyped sniffing, rearing and licking on the cage walls; behavior during the experimental (rest) period ([3]; listed as amphetamine): induced an abnormal behavior which never occurs in saline-treated control rats |
| CNC1=Nc2ccc(Cl)cc2C(c2ccccc2)=[N+]([O-])C1 [Chlordiazepoxide, reference compound] |  |  | 45 | TD50 at 0.5 h [4]: 50 mg/kg; LD50 at 24 h [6]: 700 mg/kg; ED50 [7]: 1.2 mg/kg |
| CN1C(=O)CN=C(c2ccccc2)c2cc(Cl)ccc21 [Diazepam, reference compound] |  |  | 3 | motility versus saline control ([3]; 10-20 mg/kg s.c.): did not influence motility; ED50 [7]: 0.4 mg/kg |
| CCN(CC)C(=O)c1cc2c(cn1)[nH]c1ccccc12 [N C2 H5 (C2 H5), β-carbolin-3-carboxylic acid diethylamide] | 82 | 4.3 | 35 |  |
| CN(C(=O)c1cc2c(cn1)[nH]c1ccccc12)c1ccccc1 [N CH3 (C6 H5), N-methyl-N-phenyl-β-carbolin-3-carboxamide] | > 250 | > 4 |  |  |
| CCNC(=O)c1cc2c3ccccc3n(C(=O)OCC)c2cn1 [NH(C2 H5), COOC2 H5, 9-carbethoxy β-carbolin-3-carboxylic acid, ethylamide] | > 100 | 0.16 |  |  |
| CCNC(=O)c1cc2c(cn1)[nH]c1ccccc12 [NH(C2 H5), β-carbolin-3-carboxylic acid N-ethylamide] | 42 | 0.11 | 18 | TD50 at 0.5 h [4]: > 100 mg/kg; LD50 at 24 h [6]: > 250 mg/kg |
| O=C(NC1CC1)c1cc2c(cn1)[nH]c1ccccc12 [NH(C3 H5), N'-cyclopropyl-β-carbolin-3-carboxamide] | 38 | 0.044 |  |  |
| O=C(NCc1ccccc1)c1cc2c(cn1)[nH]c1ccccc12 [NH(CH2 C6 H5)] | > 250 | 0.017 |  |  |
| O=C(NCCO)c1cc2c(cn1)[nH]c1ccccc12 [NH(CH2 CH2 OH)] | 56 | 0.2 |  |  |
| NC(=O)CNC(=O)c1cc2c(cn1)[nH]c1ccccc12 [NH(CH2 CONH2)] | > 250 | 0.92 |  |  |
| CCOC(=O)CNC(=O)c1cc2c(cn1)[nH]c1ccccc12 [NH(CH2 COOC2 H5)] | > 250 | 0.16 |  |  |
| CNC(=O)c1cc2c(cn1)[nH]c1ccccc12 [NH(CH3), β-carbolin-3-carboxylic acid methylamide] | 25 | 0.1 |  | motility versus saline control ([3]; 20-100 mg/kg p.o., Student's t-test): increased the motility significantly (P<0.001); behavior during the experimental (rest) period [3]: appeared more alert than the controls during the experimental period and showed more spells of locomotion, eating and grooming |
| CC(C)NC(=O)c1cc2c(cn1)[nH]c1ccccc12 [NH(iso-C3 H7)] | 23 | 0.15 | 75 |  |
| CCOC(=O)c1cc2c(cn1)[nH]c1ccccc12 [OC2 H5, β-carbolin-3-carboxylic acid ethyl ester] | 60 | 0.0014 | 4 | TD50 at 0.5 h [4]: > 100 mg/kg; motility versus saline control ([3]; 20-100 mg/kg s.c., Student's t-test): increased the motility significantly (P<0.001); behavior during the experimental (rest) period [3]: appeared more alert than the controls during the experimental period and showed more spells of locomotion, eating and grooming; LD50 at 24 h [6]: > 500 mg/kg; ED50 [7]: > 100 mg/kg |
| CCCCCOC(=O)c1cc2c(cn1)[nH]c1ccccc12 [OC5 H11, n-pentyl β-carbolin-3-carboxylate] | > 250 | 0.012 | 50 |  |
